Data as given in US6506876B1, “LTA4 hydrolase inhibitor pharmaceutical compositions and methods of use” (G.D. Searle & Co., priority 1994, dated 2003).
Where a name gives a salt, the structure may show the parent alone. Read-outs that look alike come from different tables or passages of the source.

Tests used:
[1] = system: LTB4 production in human whole blood (LTA4 hydrolase); assay: LTB4 production by calcium ionophore stimulated human blood; assay type: cell-based; conditions: read-out: Inhibition of Calcium Ionophore-Induced LTB4 Production in Human Blood IC50 HWB
Description: LTB4 and Thromboxane Production by Calcium Ionophore Stimulated Human Blood for LTA4 Hydrolase Inhibitor Activity
One or more concentrations of the leukotriene A4 hydrolase inhibitor compounds being tested were prepared (diluted in DMSO) and 2 μl added and gently mixed with the diluted whole blood. After incubating for 15 minutes at 37° C. in a humidified incubator, calcium ionophore A23187 (Sigma Chemical Co., St. Louis, Mo.) was added to a final concentration of 20 mcg/ml and the incubation continued under the same conditions for an additional 10 minutes to allow LTB4 formation. The reaction was terminated by centrifugation (833 g, 10 minutes at 4° C.) and supernatant were analyzed for LTB4 and thromboxane by commercially available enzyme-linked immunoassays (Caymen Chemical Co., Ann Arbor, Mich.) according to the manufacturer's instructions. The IC50 of each test compound was determined from the amount of inhibition of LTB4 production as compared to an essentially identical assay in which no inhibitor compound was present.

[2] = target: T1, recombinant human LTA4 hydrolase (rhLTA4H) (Homo sapiens, UniProt P09960); assay: Recombinant human LTA4 hydrolase assay for LTA4 hydrolase inhibitor activity
T1 sequence (P09960 1-611): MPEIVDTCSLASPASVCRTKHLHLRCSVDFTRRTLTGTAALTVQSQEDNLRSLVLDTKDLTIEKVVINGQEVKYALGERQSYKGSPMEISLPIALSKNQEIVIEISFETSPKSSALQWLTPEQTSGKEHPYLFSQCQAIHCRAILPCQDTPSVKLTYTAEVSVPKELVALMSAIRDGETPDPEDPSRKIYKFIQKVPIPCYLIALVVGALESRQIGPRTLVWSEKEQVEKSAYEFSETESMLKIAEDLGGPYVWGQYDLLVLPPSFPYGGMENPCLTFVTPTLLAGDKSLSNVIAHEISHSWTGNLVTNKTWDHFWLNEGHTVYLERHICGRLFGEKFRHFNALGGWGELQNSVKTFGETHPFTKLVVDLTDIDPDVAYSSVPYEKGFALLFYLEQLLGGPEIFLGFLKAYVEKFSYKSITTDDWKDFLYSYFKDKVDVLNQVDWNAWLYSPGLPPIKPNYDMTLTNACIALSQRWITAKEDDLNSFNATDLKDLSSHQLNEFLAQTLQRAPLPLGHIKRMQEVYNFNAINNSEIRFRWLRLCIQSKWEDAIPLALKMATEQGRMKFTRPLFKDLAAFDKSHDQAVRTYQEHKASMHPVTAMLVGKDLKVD

[3] = system: LTB4 production in mouse blood (LTA4 hydrolase); assay: Ex vivo LTB4 production by calcium ionophore stimulated mouse blood after oral dosing; assay type: in vivo
Method in brief: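 Male outbred mice dosed by oral gavage, 10 mg/kg (some at 50 mg/kg) in PBS with 2% DMSO and 1% Tween 80; heparinised blood taken at 60 min, calcium ionophore-stimulated 10 minutes at 37° C. LTB4 and thromboxane by ELISA; % inhibition against vehicle-dosed animals.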

[4] = Homo sapiens, human whole blood, A23187
[5] = Recombinant Human LTA4 Hydrolase Assay IC50 LTA4H, recombinant hLTA4H
[6] = mouse, oral gavage, 1 hour after administration of 10 mg/kg; read-out: Murine Ex Vivo LTB4 Inhibition % I LTB4
[7] = Mus musculus, po, 1 h; read-out: Murine Ex Vivo LTB4 Inhibition % I LTB4
[8] = Mus musculus, po, 1 h, read-out: Murine Ex Vivo LTB4 Inhibition % I LTB4

| Structure (SMILES) | IC50 [1, 4] | IC50 [2, 5] | inhibition in vivo at 10 mg/kg [3, 6] | also measured |
| --- | --- | --- | --- | --- |
| c1ccc(Cc2ccc(OCCn3cnc4cnccc43)cc2)cc1 [340 B] | 330 nM | 120 nM | 64% |  |
| c1ccc(Oc2ccc(OCCCn3cnc4cnccc43)cc2)cc1 [351 B] | 2080 nM | 290 nM | 71% |  |
| c1ccc(Cc2ccc3c(c2)CC(Cn2cnc4ccncc42)O3)cc1 (stereo not shown) [358 A] |  | 1550 nM |  | IC50 ([1]; human whole blood, A23187): 152 nM |
| c1ccc(Cc2ccc3c(c2)CC(Cn2cnc4cnccc42)O3)cc1 (stereo not shown) [358 B] |  | 410 nM |  | IC50 ([1]; human whole blood, A23187): 640 nM; inhibition in vivo at 10 mg/kg [3, 7]: 33% |
| c1ccc(Cc2ccc3c(c2)CC(Cn2ccc4ncnc-4c2)O3)cc1 (stereo not shown) [358 C] |  | 87 nM |  | IC50 ([1]; human whole blood, A23187): 590 nM; inhibition in vivo at 10 mg/kg [3, 7]: 13% |
| c1ccc(Cc2ccc(OCCN3CCCC3)cc2)cc1 [Example 45, 1-[2-(4-phenylmethyl)phenoxyethyl]pyrrolidine] |  |  |  | IC50 ([1]; human whole blood, A23187): 116 nM; inhibition in vivo at 10 mg/kg [3, 7]: 35% |
| C(=C\c1ccc(OCCN2CCCC2)cc1)/c1ccccc1 [Example 46, 1-[2-[4-(2-phenylethenyl)phenoxy]ethyl]pyrrolidine] | 1500 nM |  | 13% |  |
| [O-][S+](CCN1CCCC1)c1ccc(Cc2ccccc2)cc1 (stereo not shown) [Example 69, 1-[2-[4-(phenylmethyl)phenylsulfinyl]ethyl]pyrrolidine, monohydrochloride] |  | 6520 nM |  | IC50 ([1]; Homo sapiens): 11800 nM; inhibition in vivo at 10 mg/kg [3, 8]: 13% |
| c1ccc(Cc2cnc(OCCN3CCCC3)s2)cc1 [Example 76] | 3500 nM |  |  |  |
| Clc1cc(Cc2ccccc2)ccc1OCCN1CCCC1 [Example 113] | 2010 nM |  |  |  |
| Fc1cc(Cc2ccccc2)ccc1OCCN1CCCC1 [Example 115] | 190 nM |  |  |  |
| Fc1cc(OCCN2CCCC2)ccc1Cc1ccccc1 [Example 116] | 1090 nM |  | 18% |  |
| COc1cccc(Cc2ccc(OCCN3CCCC3)cc2)c1 [Example 127] | 2480 nM |  |  |  |
| COc1ccc(Cc2ccc(OCCN3CCCC3)cc2)cc1 [Example 128] | 890 nM |  | 74% |  |
| Clc1ccc(Cc2ccc(OCCN3CCCC3)cc2)cc1 [Example 140] | 1010 nM |  | 15% |  |
| COC(=O)[C@@H]1CCCN1CCOc1ccc(Cc2ccccc2)cc1 [Example 225, Methyl 1-[2-[4-(Phenylmethyl)phenoxy]ethyl]-2S-pyrrolidine-2-carboxylate, monohydrochloride, hydrate] |  |  |  | IC50 ([1]; Homo sapiens): 1860 nM |
| CC(=O)NC1CCN(CCOc2ccc(Cc3ccccc3)cc2)C1 (stereo not shown) [Example 227] |  |  |  | IC50 ([1]; human whole blood, A23187): 420 nM; Murine Ex Vivo LTB4 Inhibition % I LTB4 ([3]; mouse, oral gavage, 1 hour after administration of 10 mg/kg): 23% |
| COC(=O)C1CCCN1CCOc1ccc(Cc2ccccc2)cc1 (stereo not shown) [Example 237] |  | 450 nM |  | IC50 ([1]; Homo sapiens): 1860 nM |
| CC(=O)NC1CCN(CCOc2ccc(Cc3ccccc3)cc2)CC1 [Example 238] | 180 nM |  | 49% |  |
| CCOC(=O)C1CCN(CCOc2ccc(Cc3ccccc3)cc2)CC1 [Example 245] |  | 1770 nM |  | IC50 ([1]; Homo sapiens): 147 nM; inhibition in vivo at 10 mg/kg [3, 8]: 97% |
| CC(=O)NC1CCN(CCOc2ccc(Cc3ccccc3)cc2)C1 (stereo not shown) [Example 256] | 420 nM |  | 23% |  |
| CCOC(=O)CNCCCOc1ccc(Cc2ccccc2)cc1 [Example 264] | 1100 nM |  |  | inhibition in vivo at 50 mg/kg ([3]; mouse, oral gavage, 1 hour after administration of 50 mg/kg (*); read-out: Murine Ex Vivo LTB4 Inhibition % I LTB4): 87% |

| Structure (SMILES) | IC50 [1, 4] | IC50 [2, 5] | inhibition in vivo at 10 mg/kg [3, 6] | also measured |
| --- | --- | --- | --- | --- |
| CCOC(=O)CCNCCCOc1ccc(Cc2ccccc2)cc1 [Example 265] | 450 nM | 77 nM | 54% |  |
| CCOC(=O)CCNCCCCOc1ccc(Cc2ccccc2)cc1 [Example 272] | 76 nM |  | 97% |  |
| NC(=O)C1CCN(CC2Cc3cc(Cc4ccccc4)ccc3O2)CC1 (stereo not shown) [Example 281] | 169 nM | 93 nM | 83% |  |
| COC(=O)C1CC2CCC(C1)N2CC1Cc2cc(Cc3ccccc3)ccc2O1 (stereo not shown) [Example 283] |  | 19 nM |  | IC50 ([1]; Homo sapiens): 90 nM; inhibition in vivo at 10 mg/kg [3, 8]: 90% |
| CCOC(=O)CC1CCN(CCOc2ccc(Oc3ccccc3)cc2)CC1 [Example 300] |  | 5000 nM |  | IC50 ([1]; human whole blood, A23187): 2510 nM |
| CCOC(=O)CNCCCCOc1ccc(Cc2ccccc2)cc1 [Example 320] | 354 nM |  | 85% |  |
| CCOC(=O)CNCCCCCOc1ccc(Cc2ccccc2)cc1 [Example 321] | 421 nM |  | 87% |  |
| COC(=O)CCNCCOc1ccc(Cc2ccccc2)cc1 [Example 324] | 586 nM |  | 62% |  |
| CCOC(=O)C1C2CN(CCOc3ccc(Cc4ccccc4)cc3)CC21 (stereo not shown) [Example 325] |  | 20000 nM |  | IC50 ([1]; human whole blood, A23187): 2400 nM |
| COC(=O)CCN(C)CCCOc1ccc(Cc2cccs2)cc1 [Example 331] | 95 nM |  | 97% |  |
| c1ccc(Cc2ccc(OCCN3CCCCCC3)cc2)cc1 [Example 397] |  |  |  | IC50 ([1]; Homo sapiens): 120 nM; IC50 ([2]; read-out: Recombinant Human LTA4 Hydrolase Assay IC50 LTA4H): 37 nM |
| c1ccc(Cc2ccc(OCCN3CCCCCCC3)cc2)cc1 [Example 398] | 470 nM | 220 nM | 0% |  |
| O=C(CCNCCCOc1ccc(Cc2ccccc2)cc1)N1CCOCC1 [Example 424] | 580 nM | 370 nM |  |  |
| NC(=O)C1CCN(CCOc2ccc(Cc3ccccc3)cc2)C1 (stereo not shown) [Example 425] | 360 nM |  | 60% |  |
| O=C(O)C1C2CN(CCOc3ccc(Cc4ccccc4)cc3)CC21 (stereo not shown) [Example 435] |  | 225 nM |  | IC50 ([1]; human whole blood, A23187): 86 nM |
| O=C(O)C1CCN(CCOc2ccc(Cc3cccs3)cc2)CC1 [Example 437] |  | 113 nM |  | IC50 ([1]; human whole blood, A23187): 693 nM |
| O=c1[nH]c(C2CCCN(CCOc3ccc(Cc4ccccc4)cc3)C2)no1 (stereo not shown) [Example 448] | 825 nM | 820 nM |  |  |
| NC1CCN(CCOc2ccc(Cc3ccccc3)cc2)C1 (stereo not shown) [Example 452] | 290 nM |  | 57% |  |
| O=C(CCl)NC1CCN(CCOc2ccc(Cc3ccccc3)cc2)C1 (stereo not shown) [Example 454] |  | 140 nM |  | IC50 ([1]; human whole blood, A23187): 610 nM |
| NC(=O)NC1CCN(CCOc2ccc(Cc3ccccc3)cc2)CC1 [Example 456] | 440 nM |  | 72% |  |
| NC(=O)N1CCN(CCOc2ccc(Cc3ccccc3)cc2)CC1 [Example 459] | 2400 nM |  | 44% |  |
| NCCOc1ccc(Cc2ccccc2)cc1 [Example 496] | 280 nM | 10 nM | 54% |  |
